Measurements from EP0434038A1, “Fused imidazole derivatives, their production and use” (Takeda Chemical Industries, Ltd., priority 1989, dated 1991).

Key:
[1] = target: T1, A-II-receptor (Bos taurus, UniProt P25104); assay: displacement of 125I-angiotensin II from bovine adrenal cortex membranes; type: binding, membrane fraction; settings: for inhibition at 1 µM: read-out: Radioreceptor Assay (%) / 1X10⁻⁶M; for inhibition at 0.1 µM: read-out: Radioreceptor Assay (%) / 1X10⁻⁷M
T1 construct: An A-II-receptor was prepared from the membrane fraction of bovine adrenal cortex
T1 sequence (P25104 1-359): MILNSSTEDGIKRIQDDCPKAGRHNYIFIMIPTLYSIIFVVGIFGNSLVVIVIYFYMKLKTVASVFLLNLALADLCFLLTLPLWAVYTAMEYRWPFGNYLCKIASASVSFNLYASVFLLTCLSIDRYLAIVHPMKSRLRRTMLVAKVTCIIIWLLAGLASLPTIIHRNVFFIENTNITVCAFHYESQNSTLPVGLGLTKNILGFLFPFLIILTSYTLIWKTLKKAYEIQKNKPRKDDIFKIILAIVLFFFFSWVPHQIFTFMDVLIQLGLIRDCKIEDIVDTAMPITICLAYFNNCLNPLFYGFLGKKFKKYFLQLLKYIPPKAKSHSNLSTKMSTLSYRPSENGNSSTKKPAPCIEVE
Method: Inhibition of binding of angiotensin-II to angiotensin receptor
An experiment of inhibition on the binding of angiotensin-II (A-II) to A-II-receptor was conducted by modifying the method of Douglas et al. [Endocrinology, 102, 685-696 (1978)]. An A-II-receptor was prepared from the membrane fraction of bovine adrenal cortex.
The compound of the present invention (10⁻⁷M or 10⁻⁶M ) and ¹²⁵I-A-II (1.85 kBq/50 µl) were added to the receptor membrane fraction, and the mixture was incubated at room temperature for one hour. The receptor-bound and free ¹²⁵I-A-II were separated through a filter (Whatman GF/B filter), and the radioactivity of ¹²⁵I-A-II bound to the receptor was measured.

[2] = tested on: Jcl : SD rats; assay: inhibition of the pressor response to angiotensin II in rats, oral; type: in vivo; settings: Rattus norvegicus, p.o.
Description: Inhibitory effect of the compound of the present invention on pressor action of A-II
Jcl : SD rats (9 week old, male) were used. On the day previous to the experiment, these animals were applied with cannulation into the femoral artery and vein under anesthesia with pentobarbital Na. The animals were fasted but allowed to access freely to drinking water until the experiment was started. Just on the day of conducting the experiment, the artery cannula was connected with a blood-pressure transducer, and the average blood pressure was recorded by means of polygraph. Before administration of the drug, the pressor action due to intravenous administration of A-II (100 ng/kg) as the control was measured. The drugs were orally administered, and then, at each point of the measurement, A-II was administered intravenously, and the pressor action was similarly measured. By comparing the pressor action before and after administration of the drug, the percent inhibition by the drug on A-II-induced pressor action was evaluated.

Row | SMILES | inhibition at 1 µM [1] [%] | inhibition at 0.1 µM [1] [%] | inhibition at 30 mg/kg [2] [%] | inhibition at 10 mg/kg ([2]; 10 mg/kg) [%]
1 | CCCCc1nc2cc(C)cnc2n1Cc1ccc(-c2ccccc2-c2nnn[nH]2)cc1 [compound 15, 2-Butyl-6-methyl-3-[[2'-(1H-tetrazol-5-yl)-biphenyl-4-yl]methyl]imidazo[5,4-b]pyridine, 0.3 H2O] | 75 | 32 | – | –
2 | CCc1nc2cccnc2n1Cc1ccc(-c2ccccc2-c2nnn[nH]2)cc1 [compound 9, 2-Ethyl-3-[[2'-(1H-tetrazol-5-yl)biphenyl-4-yl]methyl]imidazo[4,5-b]pyridine, 1/2 EtOAc] | 84 | 50 | > 70 | –
3 | CCCCc1nc2nccnc2n1Cc1ccc(-c2ccccc2-c2nnn[nH]2)cc1 [compound 6, 2-Butyl-1-[[2'-(1H-tetrazol-5-yl)biphenyl-4-yl]methyl]imidazo[4,5-b]pyrazine, 0.4 H2O] | 81 | 43 | – | –
4 | CCCCc1nc2cccnc2n1Cc1ccc(-c2ccccc2-c2nnn[nH]2)cc1 [compound 3, 2-Butyl-3-[2'-[(1H-tetrazol-5-yl)biphenyl-4-yl]methyl]imidazo[4,5-b]pyridine] | 92 | 63 | > 70 | 50 to 70
5 | CCCCc1nc2cc(Br)c(C)nc2n1Cc1ccc(-c2ccccc2-c2nnn[nH]2)cc1 [compound 24, 6-Bromo-2-butyl-5-methyl-3-[[2'-(1H-tetrazol-5-yl)biphenyl-4-yl]methyl]imidazo[5,4-b]pyridine] | 9 | 0 | – | –
6 | CCCCc1nc2cnccc2n1Cc1ccc(-c2ccccc2-c2nnn[nH]2)cc1 [compound 13, 2-Butyl-1-[[2'-(1H-tetrazol-5-yl)biphenyl]-methyl]imidazo[4,5-c]pyridine, 0.2 H2O] | 44 | 1 | – | –
7 | CCCc1nc2ccc(OC)nc2n1Cc1ccc(-c2ccccc2-c2nnn[nH]2)cc1 [compound 23, 5-Methoxy-2-propyl-3-[[2'-(1H-tetrazol-5-yl)-biphenyl-4-yl]methyl]imidazo[4,5-b]pyridine, 0.3 H2O] | 75 | 32 | – | –
8 | CCCCc1nc2ncccc2n1Cc1ccc(-c2ccccc2-c2nnn[nH]2)cc1 [compound 4, 0.4 H2O] | 48 | 5 | – | –
9 | CCCCc1nc2ncc(C)cc2n1Cc1ccc(-c2ccccc2-c2nnn[nH]2)cc1 [compound 16, 2-Butyl-6-methyl-1-[[2'-(1H-tetrazol-5-yl)-biphenyl-4-yl]methyl]imidazo[5,4-b]pyridine, 0.4 H2O] | 32 | 0 | – | –
10 | CCCCc1nc2ccncc2n1Cc1ccc(-c2ccccc2-c2nnn[nH]2)cc1 [compound 14, 2-Butyl-3-[[2'-(1H-tetrazol-5-yl)biphenyl]-methyl]imidazo[4,5-c]pyridine, 0.2 H2O] | 56 | 9 | – | –
